One assay deals with T1, NHE-2 (Rattus norvegicus, UniProt P48763).
T1 sequence (P48763 1-813): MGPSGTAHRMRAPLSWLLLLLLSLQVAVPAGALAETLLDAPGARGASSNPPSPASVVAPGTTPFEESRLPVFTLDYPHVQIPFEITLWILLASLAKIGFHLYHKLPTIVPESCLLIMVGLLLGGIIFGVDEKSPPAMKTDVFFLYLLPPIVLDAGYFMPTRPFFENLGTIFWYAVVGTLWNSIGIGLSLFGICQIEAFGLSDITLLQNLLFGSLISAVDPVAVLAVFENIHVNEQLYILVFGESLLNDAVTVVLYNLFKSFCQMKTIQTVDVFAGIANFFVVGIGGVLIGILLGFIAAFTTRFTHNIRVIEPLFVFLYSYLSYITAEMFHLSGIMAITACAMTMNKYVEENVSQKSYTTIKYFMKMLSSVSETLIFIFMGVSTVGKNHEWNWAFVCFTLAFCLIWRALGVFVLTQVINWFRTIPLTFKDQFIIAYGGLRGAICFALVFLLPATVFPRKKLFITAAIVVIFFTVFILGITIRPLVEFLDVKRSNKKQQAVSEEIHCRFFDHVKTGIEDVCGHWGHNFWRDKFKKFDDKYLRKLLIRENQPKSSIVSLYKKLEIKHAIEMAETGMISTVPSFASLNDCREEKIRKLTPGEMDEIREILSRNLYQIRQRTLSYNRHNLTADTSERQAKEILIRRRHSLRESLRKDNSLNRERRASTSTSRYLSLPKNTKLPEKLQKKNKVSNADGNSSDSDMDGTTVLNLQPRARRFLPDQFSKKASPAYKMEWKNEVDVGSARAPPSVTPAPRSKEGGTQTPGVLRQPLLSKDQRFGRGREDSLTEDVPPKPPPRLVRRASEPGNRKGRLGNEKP
Conditions: * = from rat; read-out: IC50 or Ki NHE-2; cited from earlier work.

The target in a further assay is NHE-1 (Homo sapiens, UniProt P19634). The experiment in a line: NHE isoform inhibition, Table 2 adapted from Masereel et al.: NHE-1, species not marked. It counts as biochemical. Conditions: from Table 2 values. From the text: Shown below are examples of various NHE binding small molecules and their selectivity across the NHE-1, -2 and -3 isoforms. (See, e.g., B. Masereel et al., An Overview of Inhibitors of Na+/H+ Exchanger, European J. of Med. Chem., 38, pp. 547-554 (2003), the entire contents of which is incorporated by reference here for all relevant and consistent purposes). […] It is thus possible to engineer NHE3 binding selectivity into a chemical series optimized for potency against another antiporter isoform; that is, the inhibitor classes exemplified in the art may be suitably modified for activity and selectivity against NHE3 (or alternatively NHE-2 and/or NHE-8), as well as being optionally modified to be rendered substantially impermeable or substantially systemically non-bioavailable.
NHE-1, sequence (P19634 whole entry, species assumed, canonical isoform): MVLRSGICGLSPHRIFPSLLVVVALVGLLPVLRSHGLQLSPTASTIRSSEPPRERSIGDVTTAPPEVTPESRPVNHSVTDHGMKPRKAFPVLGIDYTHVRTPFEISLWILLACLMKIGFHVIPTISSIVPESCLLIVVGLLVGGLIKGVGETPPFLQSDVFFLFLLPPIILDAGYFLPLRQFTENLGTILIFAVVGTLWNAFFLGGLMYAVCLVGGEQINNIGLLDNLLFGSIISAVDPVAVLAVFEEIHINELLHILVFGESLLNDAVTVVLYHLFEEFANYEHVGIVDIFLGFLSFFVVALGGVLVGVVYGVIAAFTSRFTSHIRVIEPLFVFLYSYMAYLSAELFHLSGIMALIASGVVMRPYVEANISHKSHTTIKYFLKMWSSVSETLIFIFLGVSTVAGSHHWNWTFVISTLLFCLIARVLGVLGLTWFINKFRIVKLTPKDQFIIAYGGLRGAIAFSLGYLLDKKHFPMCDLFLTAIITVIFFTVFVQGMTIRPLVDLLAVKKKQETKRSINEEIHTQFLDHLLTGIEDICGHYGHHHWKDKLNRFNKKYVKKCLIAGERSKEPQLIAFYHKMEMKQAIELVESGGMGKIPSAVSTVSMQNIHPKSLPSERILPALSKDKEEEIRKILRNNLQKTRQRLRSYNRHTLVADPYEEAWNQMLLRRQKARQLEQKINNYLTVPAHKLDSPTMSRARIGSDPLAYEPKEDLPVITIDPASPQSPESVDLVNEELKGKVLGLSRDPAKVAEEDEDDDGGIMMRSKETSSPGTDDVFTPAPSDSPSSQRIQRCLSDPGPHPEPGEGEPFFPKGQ

Molecules are shown by their SMILES. pIC50: −log10 of the molar value.

A word on the pIC50: it is −log10 of the IC50, conventionally taken in molar units.

As for `CCN(c1nc(N)c(C(=O)NC(=N)N)nc1Cl)C(C)C` [EIPA, ethyl isopropyl amiloride], the pIC50 at NHE-2 was 7.10.

With `C/C(=C\c1cc(C)ccc1/C=C(\C)C(=O)NC(=N)N)C(=O)N=C(N)N` [S-3226], the “selectivity: more active against NHE-1 than NHE3” value at NHE-1 is reported as “selectivity is reversed”.
